Laboratory results taken from patent US20260285853A1, “COMPOUNDS AND METHODS FOR MODULATING SPLICING” (REMIX THERAPEUTICS INC., priority 2023, published 2026).
Like-named read-outs stand apart in the source and are kept apart here.

Columns and labels:
Type in all cases: cell-based
HTT mRNA [1] = experiment: Splicing RT-qPCR assay (THP), Table 2A
MYB mRNA [2] = experiment: Splicing RT-qPCR assay (THP), Table 2A
HTT mRNA [3] = experiment: Gene panel canonical junction qPCR assay, decrease in CJ mRNA, Table 3
In short: (§1)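 IC50 is the concentration giving 50% response in decrease of the canonical junction transcript, fitted with a 4-parameter logistic equation. Transcripts were quantified by RT-qPCR in A673 or K562 cells after 24 h exposure to compounds dosed up to 10 uM in 3-fold steps.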

MYB mRNA [4] = experiment: as above
In short: as §1

[5] = test system: SH-SY5Y (human neuroblastoma) cells; experiment: Cell viability, Cell Titer Glo 2.0 assay; conditions: read-out: Viability SHSY5Y.3 GI50
In short: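 Steps: serial DMSO dilution of compound, 1:100 dilution into medium, addition to cells (0.1% DMSO final). Incubate 72 h at 37 °C, 5% CO2. Assay with CellTiter-Glo 2.0 reagent.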

[6] = Table 2A (THP), AJ mRNA increase, read-out: HTT AJ (increase in alternative junction mRNA, AC50)
[7] = Table 2A (THP), CJ mRNA decrease, read-out: HTT CJ (decrease in canonical junction mRNA, IC50)
[8] = Table 2A (THP), AJ mRNA increase, read-out: MYB AJ (increase in alternative junction mRNA, AC50)
[9] = Table 2A (THP), CJ mRNA decrease, read-out: MYB CJ (decrease in canonical junction mRNA, IC50)
[10] = decrease in canonical junction (CJ) mRNA, gene panel qPCR, Table 3
[11] = Table 2A, THP, HTT alternative junction (AJ) mRNA, read-out: HTT AJ (AC50, increase in alternative junction mRNA)
[12] = Table 2A, THP, HTT canonical junction (CJ) mRNA, read-out: HTT CJ (IC50, decrease in canonical junction mRNA)
[13] = Table 2A, THP, MYB alternative junction (AJ) mRNA, read-out: MYB AJ (AC50, increase in alternative junction mRNA)
[14] = Table 2A, THP, MYB canonical junction (CJ) mRNA, read-out: MYB CJ (IC50, decrease in canonical junction mRNA)
[15] = decrease in CJ mRNA levels, canonical junction qPCR, gene panel

| IC50 (HTT mRNA [1]; [7]) [nM] | IC50 (MYB mRNA [2]; [9]) [nM] | IC50 (HTT mRNA [3]; [10]) [nM] | IC50 (MYB mRNA [4]; [10]) [nM] | GI50 [5] [nM] | IC50 (HTT mRNA [1]; [12]) [nM] | IC50 (MYB mRNA [2]; [14]) [nM] | IC50 (HTT mRNA [3]; [15]) [nM] | IC50 (MYB mRNA [4]; [15]) [nM] | SMILES | AC50 (HTT mRNA [1]; [6]) [nM] | AC50 (MYB mRNA [2]; [8]) [nM] | AC50 (HTT mRNA [1]; [11]) [nM] | AC50 (MYB mRNA [2]; [13]) [nM] |
| --- | --- | --- | --- | --- | --- | --- | --- | --- | --- | --- | --- | --- | --- |
| – | – | – | – | 1000 to 10000 | 1000 to 10000 | 100 to 1000 | 1000 to 10000 | 100 to 1000 | COc1nc2c(C(=O)Nc3cc4cn(C)nc4c(F)c3OC)ccc(N3C[C@H](C)N[C@@H](C)C3)c2s1 [Compound 786] | – | – | 1000 to 10000 | 100 to 1000 |
| – | – | – | – | 1000 to 10000 | > 10000 | 100 to 1000 | > 10000 | 100 to 1000 | CCNC1CCN(c2ccc(C(=O)Nc3cn4cc(C)nc(C)c4n3)c3nc(C)cn23)CC1 [Compound 612, N-(6,8-dimethyl-imidazo-[1,2-a]pyrazin-2-y1)-5-[4-(ethylamino)-1-piperidyl]-2-methyl-imidazo[1,2-a]pyridine-8-carboxamide] | – | – | > 10000 | 100 to 1000 |
| > 10000 | 1000 to 10000 | > 10000 | 1000 to 10000 | > 10000 | – | – | – | – | Cn1cc2cc(NC(=O)c3ccc(N4CCC(NC5CC5)CC4)c4cn(C)nc34)c(C(F)(F)F)cc2n1 [Compound 476, 4-[4-(cyclopropyl-amino)-1-piperidyl]-2-methyl-N-[2-methyl-6-(trifluoromethyl)-indazol-5-yl]indazole-7-carboxamide] | > 10000 | 1000 to 10000 | – | – |
| > 10000 | > 10000 | > 10000 | > 10000 | > 10000 | – | – | – | – | CNC1CCCC(Oc2ccc(C(=O)Nc3cn4cc(C)nc(C)c4n3)c3nn(C)cc23)C1 (stereo not shown) [Compound 593] | > 10000 | > 10000 | – | – |
| – | – | – | – | 1000 to 10000 | > 10000 | 100 to 1000 | > 10000 | 100 to 1000 | C=CCNC1CCN(c2cc(O)c(C(=O)Nc3cc(CNS(C)(=O)=O)c4nn(C)cc4c3)c3nn(C)cc23)CC1 [Compound 854] | – | – | 1000 to 10000 | 100 to 1000 |
| 1000 to 10000 | < 100 | 1000 to 10000 | < 100 | 1000 to 10000 | – | – | – | – | CNC1CCN(c2cc(F)c(C(=O)Nc3cn4cc(C)nc(C)c4n3)c3nn(C)cc23)CC1 [Compound 342, N-(6,8-dimethylimidazo[1,2-a]pyrazin-2-yl)-6-fluoro-2-methyl-4-[4-(methylamino)-1-piperidyl]-indazole-7-carbox-amide] | 1000 to 10000 | < 100 | – | – |
| 1000 to 10000 | 100 to 1000 | 1000 to 10000 | 100 to 1000 | 100 to 1000 | – | – | – | – | COc1c(NC(=O)c2c(F)cc(N3CCC(NC4CC4)CC3)c3cn(C)nc23)cc2cn(C)nc2c1C [Compound 425, 4-[4-(cyclopropylamino)-1-piperidy1]-6-fluoro-N-(6-methoxy-2,7-dimethyl-indazol-5-y1)-2-methyl-indazole-7-carboxamide] | 1000 to 10000 | 100 to 1000 | – | – |
| – | – | – | – | 1000 to 10000 | 1000 to 10000 | > 10000 | 1000 to 10000 | > 10000 | COc1nc2c(C(=O)Nc3cccc4c3nnn4C)ccc(N3C[C@H](C)N[C@@H](C)C3)c2s1 [Compound 740, 7-[(3S,5S)-3,5-dimethylpiperazin-1-yl]-2-methoxy-N-(1-methylbenzotriazol-4-yl)-1,3-benzothiazole-4-carboxamide] | – | – | > 10000 | > 10000 |

Continued, compound first:

| SMILES | IC50 (HTT mRNA [1]; [7]) [nM] | IC50 (MYB mRNA [2]; [9]) [nM] | IC50 (HTT mRNA [3]; [10]) [nM] | IC50 (MYB mRNA [4]; [10]) [nM] | GI50 [5] [nM] | IC50 (HTT mRNA [1]; [12]) [nM] | IC50 (MYB mRNA [2]; [14]) [nM] | IC50 (HTT mRNA [3]; [15]) [nM] | IC50 (MYB mRNA [4]; [15]) [nM] | AC50 (HTT mRNA [1]; [6]) [nM] | AC50 (MYB mRNA [2]; [8]) [nM] | AC50 (HTT mRNA [1]; [11]) [nM] | AC50 (MYB mRNA [2]; [13]) [nM] |
| --- | --- | --- | --- | --- | --- | --- | --- | --- | --- | --- | --- | --- | --- |
| COc1cc2nc(C)cn2cc1NC(=O)c1cnc(N2CCC(NC3CC3)CC2)c2cn(C)nc12 [Compound 440, 4-[4-(cyclopropylamino)-1-piperidyl]-N-(7-methoxy-2-methyl-imidazo[1,2-a]-pyridin-6-yl)-2-methyl-pyrazolo[4,3-c]-pyridine-7-carboxamide] | 1000 to 10000 | 100 to 1000 | 1000 to 10000 | 100 to 1000 | 100 to 1000 | – | – | – | – | 1000 to 10000 | < 100 | – | – |
| Cc1cn2cc(NC(=O)c3c(F)cc(N4CCC(NC5CC5)CC4)c4cn(C)nc34)nc2c(CN)n1 [Compound 392, N-[8-(aminomethyl)-6-methyl-imidazo[1,2-a]-pyrazin-2-yl]-4-[4-(cyclopropylamino)-1-piperidyl]-6-fluoro-2-methyl-indazole-7-carboxamide] | > 10000 | 1000 to 10000 | > 10000 | 1000 to 10000 | > 10000 | – | – | – | – | > 10000 | 1000 to 10000 | – | – |
| Cc1cn2cc(NC(=O)c3ccc(N4CCC(NC5CC5)CC4)c4cn(C)nc34)nc2c(CN2CCCCS2(=O)=O)n1 [Compound 795] | – | – | – | – | 1000 to 10000 | > 10000 | > 10000 | > 10000 | > 10000 | – | – | > 10000 | > 10000 |
| COc1nc2nc(C)cn2cc1NC(=O)c1ccc(N2CCC(NC3CC3)CC2)c2cn(C)nc12 [Compound 524, 4-[4-(cyclopropyl-amino)-1-piperidyl]-N-(7-methoxy-2-methylimidazo-[1,2-a]-pyrimidin-6-yl)-2-methyl-indazole-7-carboxamide] | 1000 to 10000 | < 100 | 1000 to 10000 | < 100 | 100 to 1000 | – | – | – | – | 1000 to 10000 | < 100 | – | – |
| COc1cc2nn(C)cc2cc1NC(=O)c1ccc(N(C)C2CCNCC2)c2cn(C)nc12 [Compound 548] | > 10000 | 100 to 1000 | > 10000 | 100 to 1000 | 1000 to 10000 | – | – | – | – | > 10000 | 100 to 1000 | – | – |
| COc1cc2nn(C)cc2cc1NC(=O)c1ccc(N2CCC3(CCNC3)C2)c2cn(C)nc12 (stereo not shown) [Compound 513] | > 10000 | 1000 to 10000 | > 10000 | 1000 to 10000 | > 10000 | – | – | – | – | > 10000 | 1000 to 10000 | – | – |
| CCNC1CCN(c2cc(F)c(C(=O)Nc3cn4cc(C)nc4c(Cl)c3OC)c3nn(C)cc23)CC1 [Compound 357, N-(8-chloro-7-methoxy-2-methylimidazo[1,2-a]pyridin-6-yl)-4-[4-(ethylamino)-1-piperidyl]-6-fluoro-2-methyl-indazole-7-carboxamide] | 100 to 1000 | < 100 | 100 to 1000 | < 100 | 100 to 1000 | – | – | – | – | 100 to 1000 | < 100 | – | – |
| Cc1cn2cc(NC(=O)c3ccc(N4CCC(NC5CC5)CC4)c4cn(C)nc34)nc2c(CN2CCCS2(=O)=O)n1 [Compound 774, 4-[4-(cyclopropylamino)-1-piperidyl]-N-[8-[(1,1-dioxo-1,2-thiazolidin-2-yl)methyl]-6-methyl-imidazo[1,2-a]pyrazin-2-yl]-2-methyl-indazole-7-carboxamide] | – | – | – | – | > 10000 | > 10000 | > 10000 | > 10000 | > 10000 | – | – | > 10000 | > 10000 |
| COc1cc2nn(C)cc2cc1NC(=O)c1ccc(N2CCNC(C)CC2)c2cn(C)nc12 (stereo not shown) [Compound 546] | > 10000 | 100 to 1000 | > 10000 | 100 to 1000 | 1000 to 10000 | – | – | – | – | > 10000 | 100 to 1000 | – | – |
| Cc1cn2cc(NC(=O)c3ccc(N4CCNC(C)CC4)c4cn(C)nc34)nc2c(C)n1 (stereo not shown) [Compound 535] | 1000 to 10000 | 1000 to 10000 | 1000 to 10000 | 1000 to 10000 | 1000 to 10000 | – | – | – | – | 1000 to 10000 | 1000 to 10000 | – | – |
| Cn1cc2c(N3CCC(NC4CC4)CC3)cc(F)c(C(=O)Nc3ccnnc3O)c2n1 [Compound 420, 4-[4-(cyclopropylamino)-1-piperidyl]-6-fluoro-N-(3-hydroxypyridazin-4-yl)-2-methyl-indazole-7-carboxamide] | > 10000 | > 10000 | > 10000 | > 10000 | > 10000 | – | – | – | – | > 10000 | > 10000 | – | – |
| Cc1cn2cc(NC(=O)c3ccc(N4CC[C@H]5CNCC[C@H]54)c4cn(C)nc34)nc2c(C)n1 (stereo in doubt) [Compound 502] | 100 to 1000 | 100 to 1000 | 100 to 1000 | 100 to 1000 | 100 to 1000 | – | – | – | – | 100 to 1000 | 100 to 1000 | – | – |
| COc1nc2c(C(=O)Nc3cc(CO)c4nn(C)cc4c3)ccc(N3CCC(NC4CC4)CC3)c2s1 [Compound 862] | – | – | – | – | 100 to 1000 | 100 to 1000 | 100 to 1000 | 100 to 1000 | 100 to 1000 | – | – | 100 to 1000 | 100 to 1000 |
| COC(=O)NCc1nc(C)cn2cc(NC(=O)c3ccc(N4CCC(NC5CC5)CC4)c4cn(C)nc34)nc12 [Compound 807] | – | – | – | – | 1000 to 10000 | > 10000 | > 10000 | > 10000 | > 10000 | – | – | > 10000 | > 10000 |
